Measured values reported in ChEMBL document CHEMBL1165994, “Leucoridines A-D, cytotoxic Strychnos-Strychnos bisindole alkaloids from Leuconotis” (J Nat Prod, 2010).
Values after ≈ are worked out from the molar mass of the structure shown.

Columns and labels:
KB = assay: Cytotoxicity against human KB cells after 3 days by MTT assay; assay type: functional, cell-based; settings: 72 h
[1] = Cytotoxicity against human KB/VJ300 cells after 3 days by MTT assay; assay type: functional, cell-based; settings: KB/VJ300, 72 h

CC[C@@H]1CN2CC[C@@]34C5=C(C[C@]6(CN5c5ccccc53)C3=Nc5ccccc5[C@@]35CCN3C[C@@H](CC)[C@@H]6C[C@H]35)[C@H]1C[C@H]24 [LEUCORIDINE A]
IC50 (KB): 0.57 µg/mL (≈ 1.02 µM)
IC50 [1]: 2.39 µg/mL (≈ 4.29 µM)

CCC1=CN2CC[C@@]34C(=Nc5ccccc53)[C@@]3(CC5=C6N(C3)c3ccccc3[C@@]63CCN6C[C@@H](CC)[C@@H]5C[C@H]63)[C@H]1C[C@H]24 [LEUCORIDINE B]
IC50 (KB): 11.6 µg/mL (≈ 20.9 µM)
IC50 [1]: 12 µg/mL (≈ 21.7 µM)

CC[C@@H]1CN2CC[C@@]34C5=C(C[C@]6(CN5c5ccccc53)C(=O)[C@@]3(c5ccccc5N)CCN5C[C@@H](CC)[C@@H]6C[C@H]53)[C@H]1C[C@H]24 [LEUCORIDINE C]
IC50 (KB): 10.9 µg/mL (≈ 19 µM)
IC50 [1]: 11.8 µg/mL (≈ 20.5 µM)

C=C1[C@H]2C[C@@H]3N(CC[C@@]34c3cccc(C[C@@H]5C6=Nc7ccccc7[C@@]67CCN6C[C@@H](CC)[C@@H]5C[C@H]67)c3N[C@@H]14)C[C@H]2CC [LEUCORIDINE D]
IC50 (KB): 12.5 µg/mL (≈ 22.4 µM)
IC50 [1]: 13.3 µg/mL (≈ 23.8 µM)
